Structures are written as SMILES.

Test [1] has as its target T1, μ-opioid receptor (Homo sapiens (Human), UniProt P35372). Kind of test: μ-opioid receptor [35S]GTPγS functional assay, U-2 OS cells (Table 5). The class given is biochemical. As to conditions: for Emax: relative to DAMGO; for EC50: μ GTP. Summed up: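 Membranes (0.026 mg/mL) from cells expressing recombinant human μ-opioid receptor in a U-2 OS background were incubated with 0.20 nM [35S]GTPγS, 3 mM GDP and saponin in 20 mM HEPES pH 7.4, 100 mM NaCl, 10 mM MgCl2 for 30 min at about 25 °C. Filter-bound radioactivity counted; sigmoidal dose-response fits gave values, Emax relative to DAMGO.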
For orientation: Binding of GTPγS marks nucleotide exchange on a G protein.

Test [2] deals with recombinant human kappa opioid receptor (κ) (Homo sapiens (Human), UniProt P41145). In words: κ-opioid receptor radioligand binding assay ([3H]-U69,593). As to conditions: binding affinity. The protocol:
κ-Opioid Receptor Binding Assay Procedures: Membranes from HEK-293 cells, CHO cells or U-2 OS cells expressing the recombinant human kappa opioid receptor (κ) were prepared by lysing cells in ice cold hypotonic buffer (2.5 mM MgCl2, 50 mM HEPES, pH 7.4) (10 mL/10 cm dish) followed by homogenization with a tissue grinder/Teflon pestle. Membranes from a cell line naturally expressing kappa opioid receptor can also be used. Membranes were collected by centrifugation at 30,000×g for 15 min at 4° C. and pellets were resuspended in hypotonic buffer to a final concentration of 1-3 mg/mL. Protein concentrations were determined using the BioRad protein assay reagent with bovine serum albumen as standard. Aliquots of κ receptor membranes were stored at −80° C.
Radioligand dose displacement assays used 0.4 nM [^3H]-U69,593 (GE Healthcare, Piscataway, N.J.; 40 Ci/mmole) with 15 μg membrane protein (recombinant opioid receptor expressed in HEK 293 cells; in-house prep) in a final volume of 200 μl binding buffer (5% DMSO, 50 mM Trizma base, pH 7.4). Non-specific binding was determined in the presence of 10 μM unlabeled naloxone or U69,593. All reactions were performed in 96-well polypropylene plates for 1 hour at a temperature of about 25° C. Binding reactions were terminated by rapid filtration onto 96-well Unifilter GF/C filter plates (Perkin Elmer, Shelton, Conn.) presoaked in 0.5% polyethylenimine (Sigma). Harvesting was performed using a 96-well tissue harvester (Perkin Elmer, Shelton, Conn.) followed by five filtration washes with 200 μl ice-cold binding buffer. Filter plates were subsequently dried at 50° C. for 1-2 hours. Fifty μl/well scintillation cocktail (Perkin Elmer, Shelton, Conn.) was added and plates were counted in a Packard Top-Count for 1 min/well.

For test [3], the target named is T2, κ-opioid receptor (Homo sapiens (Human), UniProt P41145). In words: κ-opioid receptor [35S]GTPγS functional assay, HEK-293 or CHO cells (Table 4). It counts as biochemical. As to conditions: for Emax: relative to U69,593; for EC50: κ GTP. The protocol: (§1) κ-Opioid Receptor Functional Assay Procedures: Functional [^35S]GTPγS binding assays were conducted as follows. κ opioid receptor membrane solution was prepared by sequentially adding final concentrations of 0.026 μg/μl κ membrane protein (in-house), 10 μg/mL saponin, 3 μM GDP and 0.20 nM [^35S]GTPγS to binding buffer (100 mM NaCl, 10 mM MgCl2, 20 mM HEPES, pH 7.4) on ice. The prepared membrane solution (190 μl/well) was transferred to 96-shallow well polypropylene plates containing 10 μl of 20× concentrated stock solutions of agonist prepared in DMSO. Plates were incubated for 30 min at a temperature of about 25° C. with shaking. Reactions were terminated by rapid filtration onto 96-well Unifilter GF/B filter plates (Perkin Elmer, Shelton, Conn.) using a 96-well tissue harvester (Packard) and followed by three filtration washes with 200 μl ice-cold binding buffer (10 mM NaH2PO4, 10 mM Na2HPO4, pH 7.4). Filter plates were subsequently dried at 50° C. for 2-3 hours. Fifty μl/well scintillation cocktail (Perkin Elmer, Shelton, Conn.) was added and plates were counted in a Packard Top-Count for 1 min/well.
κ GTP Emax (%) is the maximal effect elicited by a compound relative to the effect elicited by U69,593.
In TABLE 4, activity response of certain Compounds of the Invention to the μ- and κ-opioid receptors was determined as described above for functional assays using HEK-293 or CHO cells.

The target in test [4] is δ-opioid receptor (Homo sapiens (Human), UniProt P41143). In words: δ-opioid receptor [35S]GTPγS functional assay (Table 4). It counts as biochemical. The protocol:
as §1, with “δ-Opioid” for “κ-Opioid”, “δ” for “κ”, “(Perkin Elmer, Shelton, Conn.),” for “(in-house),”, “shaking” for “shaking.”, “1-2” for “2-3”, “Top-count” for “Top-Count”
δ GTP Emax (%) is the maximal effect elicited by a compound relative to the effect elicited by met-enkephalin.

Test [5] addresses T1, μ-opioid receptor. Kind of test: μ-opioid receptor [35S]GTPγS functional assay, HEK-293 or CHO cells (Table 4). It counts as biochemical. As to conditions: for Emax: relative to DAMGO; for EC50: μ GTP. Summed up: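 Membranes from HEK-293, CHO or U-2 OS cells (or commercial) expressing recombinant μ receptor; 0.20 nM [35S]GTPγS, 3 mM GDP, saponin, in 100 mM NaCl/10 mM MgCl2/20 mM HEPES pH 7.4.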

For test [6], the target named is T2, κ-opioid receptor. Kind of test: κ-opioid receptor [35S]GTPγS functional assay, U-2 OS cells (Table 5). The class given is biochemical. As to conditions: for Emax: relative to U69,593; for EC50: κ GTP. In a few lines:
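[35S]GTPγS binding in κ receptor membranes (0.026 μg/μl protein) with 10 μg/mL saponin, 3 μM GDP and 0.20 nM [35S]GTPγS in pH 7.4 HEPES/NaCl/MgCl2 buffer. Agonist incubation lasted 30 min at about 25 °C, followed by filtration and scintillation counting. Emax is expressed relative to U69,593.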

For test [7], the target named is T1, μ-opioid receptor. In words: μ-opioid receptor radioligand binding assay ([3H]-diprenorphine). As to conditions: binding affinity. The protocol:
μ-Opioid Receptor Binding Assay Procedures: Radioligand dose-displacement binding assays for μ-opioid receptors used 0.3 nM [^3H]-diprenorphine (Perkin Elmer, Shelton, Conn.), with […] membrane protein/well in a final volume of 500 μl binding buffer (10 mM MgCl2, 1 mM EDTA, 5% DMSO, 50 mM HEPES, pH 7.4). Reactions were carried out in the absence or presence of increasing concentrations of unlabeled naloxone. All reactions were conducted in 96-deep well polypropylene plates for 2 hours at room temperature. Binding reactions were terminated by rapid filtration onto 96-well Unifilter GF/C filter plates (Perkin Elmer, Shelton, Conn.), presoaked in 0.5% polyethylenimine using a 96-well tissue harvester (Perkin Elmer, Shelton, Conn.) followed by performing three filtration washes with 500 μl of ice-cold binding buffer. Filter plates were subsequently dried at 50° C. for 2-3 hours. BetaScint scintillation cocktail (Perkin Elmer, Shelton, Conn.) was added (50 μl/well), and plates were counted using a Packard Top-Count for 1 min/well. The data were analyzed using the one-site competition curve fitting functions in GraphPad PRISM™ v. 3.0 or higher (San Diego, Calif.), or an in-house function for one-site competition curve-fitting.

For test [8], the target named is human opioid receptor-like receptor (ORL-1) (Homo sapiens (Human), UniProt P41146). In words: ORL-1 receptor radioligand binding assay ([3H]-nociceptin). As to conditions: binding affinity, read-out: Ki (nM) ORL-1. The protocol:
ORL-1 Receptor Binding Assay Procedure: Membranes from recombinant HEK-293 cells expressing the human opioid receptor-like receptor (ORL-1) (Perkin Elmer, Shelton, Conn.) was prepared by lysing cells in ice-cold hypotonic buffer (2.5 mM MgCl2, 50 mM HEPES, pH 7.4) (10 ml/10 cm dish) followed by homogenization with a tissue grinder/Teflon pestle. Membranes were collected by centrifugation at 30,000×g for 15 min at 4° C. and pellets resuspended in hypotonic buffer to a final concentration of 1-3 mg/ml. Protein concentrations were determined using the BioRad protein assay reagent with bovine serum albumen as standard. Aliquots of the ORL-1 receptor membranes were stored at −80° C.
Radioligand binding assays (screening and dose-displacement) use 0.1 nM [^3H]-nociceptin (Perkin Elmer, Shelton, Conn.; 87.7 Ci/mmole) with 12 μg membrane protein in a final volume of 500 μl binding buffer (10 mM MgCl2, 1 mM EDTA, 5% DMSO, 50 mM HEPES, pH 7.4). Non-specific binding was determined in the presence of […] unlabeled nociceptin (American Peptide Company). […] Fifty μl/well scintillation cocktail (Perkin Elmer, Shelton, Conn.) was added and plates are counted in a Packard Top-Count for 1 min/well. The data from screening and dose-displacement experiments were analyzed using Microsoft Excel and the curve fitting functions in GraphPad PRISM™, v. […]

Chain of δ-opioid receptor (P41143 whole entry, looked up): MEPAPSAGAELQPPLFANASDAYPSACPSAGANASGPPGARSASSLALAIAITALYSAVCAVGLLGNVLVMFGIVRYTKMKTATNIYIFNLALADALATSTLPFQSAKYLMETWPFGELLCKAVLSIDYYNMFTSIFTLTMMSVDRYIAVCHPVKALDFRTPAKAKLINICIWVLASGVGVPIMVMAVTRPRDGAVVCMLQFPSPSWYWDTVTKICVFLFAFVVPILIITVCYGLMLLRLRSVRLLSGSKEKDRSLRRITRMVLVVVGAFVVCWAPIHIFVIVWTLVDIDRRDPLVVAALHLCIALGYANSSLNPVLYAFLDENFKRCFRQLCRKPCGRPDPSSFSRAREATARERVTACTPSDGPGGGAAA

`Cc1ccc(CNC(=O)[C@H]2C[C@]34CCN(CC5CC5)[C@H](Cc5ccc(O)cc53)[C@]4(O)C2)cc1` [Compound 38, (2S,3aS,4R,9bS)-12-(cyclopropylmethyl)-3a,8-dihydroxy-N-(4-methylbenzyl)-1,2,3,3a,4,5-hexahydro-4,9b-(epiminoethano)cyclopenta[a]naphthalene-2-carboxamide]: the Emax worked out at 77.7 ± 2.4% in test [1]; 96.3 ± 3.18% in test [3]; 50.1 ± 1.25% in test [4] (relative to met-enkephalin); 56.5 ± 2.6% in test [5]; 105 ± 3.18% in test [6]. Moreover, the EC50 in test [1] came out at 0.25 ± 0.024 nM; in test [3] it was 0.43 ± 0.048 nM; in test [4] (δ GTP), 1.56 ± 0.055 nM; in test [5], 0.00062 ± 0.00012 µM; in test [6], 0.065 ± 0.01 nM. In addition, the Ki in test [2] was 0.16 ± 0.044 nM.

As for `COC(=O)[C@@H]1C[C@]23CCN(CC4CC4)[C@H](Cc4ccc(O)cc42)[C@]3(O)C1` [Compound 12, (2R,3aS,4R,9bS)-methyl-12-(cyclopropylmethyl)-3a,8-dihydroxy-1,2,3,3a,4,5-hexahydro-4,9b-(epimino-ethano)cyclopenta[a]naphthalene-2-carboxylate], the Emax in test [1] is 55.6 ± 3.83%; in test [3], 82.7 ± 1.2%; in test [5] it was 1%; in test [6], 108 ± 3.51%. Also, the EC50 in test [1] was 1.22 ± 0.27 nM; in test [3], 2.95 ± 1.06 nM; in test [5] (bound given in μM) it was more than 20 µM; in test [6] it was 1.7 ± 0.26 nM. Moreover, the Ki in test [2] amounted to 0.3 ± 0.056 nM; in test [7], 0.53 ± 0.076 nM.

Turning to `N=C(N)NCCCCNC(=O)[C@@H]1C[C@]23CCN(CC4CC4)[C@H](Cc4ccc(O)cc42)[C@]3(O)C1` [Compound 7, (2R,3aS,4R,9bS)-12-(cyclopropylmethyl)-N-(4-guanidinobutyl)-3a,8-dibydroxy-1,2,3,3a,4,5-hexahydro-4,9b-(epimino-ethano)cyclopenta[a]naphthalene-2-carboxamide], the Emax was determined as 56.3 ± 2.6% in test [1], 57.5 ± 1.66% in test [3], 1% in test [5] and 101 ± 3.67% in test [6]. The 50% effective concentration (EC50) was 8.94 ± 1.31 nM in test [1], 0.8 ± 0.26 nM in test [3], more than 20 µM in test [5] (bound given in μM) and 1.16 ± 0.16 nM in test [6]. Further, the Ki came to 0.13 ± 0.018 nM in test [2] and 23.6 ± 5.56 nM in test [7].

`N=C(N)NCCNC(=O)[C@@H]1C[C@]23CCN(CC4CC4)[C@H](Cc4ccc(O)cc42)[C@]3(O)C1` [Compound 6, (2R,3aS,4R,9bS)-12-(cyclopropylmethyl)-N-(2-guanidinoethyl)-3a,8-dihydroxy-1,2,3,3a,4,5-hexahydro-4,9b-(epimino-ethano)cyclopenta[a]naphthalene-2-carboxamide]: the figures for the Ki in test [8] and in test [2] were 10300 ± 2140 nM and 0.098 ± 0.032 nM, respectively. Besides, the Emax stood at 57 ± 2.08% in test [1], 48.6 ± 0.98% in test [3], 0% in test [5] and 98 ± 3.21% in test [6]. For the same compound, the EC50 in test [3] was determined as 0.86 ± 0.16 nM; in test [6], 0.87 ± 0.16 nM.

The Emax is the greatest response seen or fitted, relative to the assay's reference. The term EC50 denotes the concentration that produces a half-maximal response. The low end stands for a more potent agent, the high end for a less potent agent. As a reminder, the Ki is the equilibrium dissociation constant of an inhibitor or competing ligand from its target.

(Values after patent publication US9656962B2, “Ring-contracted morphinans and the use thereof” (Purdue Pharma L.P., priority 2013, dated 2017).)
